Data: patent US5773573A, “HIV peptides” (priority 1994, dated 1998)
Residues, ends and D or L forms follow the SMILES beside them.

Tests used:
[1] = system: autologous PHA T cell blasts; experiment: Cytotoxicity Assay (51Cr release) of peptide-induced short-term PBMC cultures against autologous targets; format: cell-based, human; conditions: for autoreactive response (autocytotoxic, 51Cr release): peptide stimulant 100 ng/ml 4-8 hours
Protocol: (§1) Peripheral Blood Mononuclear Cells (PBMC) were isolated from 8 HIV seronegative individuals who volunteered as donors for the study. […] PBMC (10^6 /ml) from the each of the donors were incubated in the presence of VHP1 or control peptide at 100 ng/ml for 4-8 hours to produce Effector Cells. Irradiated autologous PBMC without VHP1 stimulation served as controls.
(§2) VHP1 induced short-term cultures of autoreactive T cells (Effector Cells) were assayed for cytotoxic activity against autologous PHA T cell blasts stimulated with 5 μg/ml PHA for 4-5 days at a concentration of 10^4 cells/well in the absence of either control or VHP1 peptide (Target Cells). 1-2×10^6 Target Cells were labeled with […] of ^51 Cr in 0.3 ml of medium for 1 hour at 37° C. Target cells were washed 3× in medium, diluted to 10^5 or 10^4 cells/ml and […] of cell suspension added to each well of a V-bottomed 96-well microtitre plate. Effector Cells were added to the Target Cells at Effector:Target (E:T) ratios from 50:1 to 6.25:1. Cultures were incubated for 4 hours at 37° C. and supernatants were harvested and counted for ^51 Cr release. Percent cytotoxicity is calculated using the formula : […] (experimental release-spontaneous release)/(maximum release-spontaneous release). Spontaneous release and maximum release were determined by incubating target cells in medium or 1.0% Triton ×-100 respectively. Results where calculated as means ± Standard Deviations (SD) of triplicate cultures and a positive result was scored above 20% specific lysis. The cytotoxicity assay was repeated for allogeneic Target cells from donors (Target-1, Target-2 and Target-3) and the percent specific lysis scored at an Effector:Target ratio of 10:1.

[2] = system: allogeneic PHA activated T cell Targets; experiment: Cytotoxicity Assay (51Cr release) of VHP1-induced Effectors against allogeneic targets; format: cell-based, human
Protocol: as §1, §2
To establish the MHC specificity of the cytotoxic cells stimulated by VHP1, further Cytotoxicity Assays with allogeneic PHA activated T cell Targets with different MHC phenotypes were then performed. The Effectors were derived from short term cultures of PBMC from donors of either MHC B8 or B35 (trigger+) incubated with VHP1 for 4-8 hours. The Target Cells were from donors with either B8 B35 (trigger+) or B27(Trigger-) MHC phenotype. Target PBMC incubated with radioactive ^51 Cr for one hour before being mixed with Effectors. Effector Cells were mixed with radiolabelled Target Cells and incubated for 4 hours and lysis was measured by release of radioactive ^51 Cr.
The measurement of percent specific lysis by ^51 Cr release at an Effector to Target Ratio of 10:1.

[3] = short term cultures of PBMC from donors positive for B8 or B35 (trigger+)

Structure (SMILES)	autoreactive response (autocytotoxic, 51Cr release) ([1]; PBMC of donor eight (Trigger+))	autoreactive response (autocytotoxic, 51Cr release) ([1]; PBMC of donor five (Trigger+))	autoreactive response (autocytotoxic, 51Cr release) ([1]; PBMC of donor four (Trigger-))	autoreactive response (autocytotoxic, 51Cr release) ([1]; PBMC of donor nine (Trigger-))	autoreactive response (autocytotoxic, 51Cr release) ([1]; PBMC of donor one (Trigger-))	autoreactive response (autocytotoxic, 51Cr release) ([1]; PBMC of donor seven (Trigger+))	autoreactive response (autocytotoxic, 51Cr release) ([1]; PBMC of donor six (Trigger+))	autoreactive response (autocytotoxic, 51Cr release) ([1]; PBMC of donor two (Trigger-))	autocytotoxic responses against activated autologous T cell targets ([1]; short term cultures of PBMC from donors negative for B8 or B35 (trigger-))	autocytotoxic responses against activated autologous T cell targets [1, 3]	percent specific lysis by 51Cr release ([2]; VHP1-induced Effectors JMC-B8, Target1-B8, Effector to Target Ratio 10:1) [%]	percent specific lysis by 51Cr release ([2]; VHP1-induced Effectors JMC-B8, Target2-B35, Effector to Target Ratio 10:1) [%]	percent specific lysis by 51Cr release ([2]; VHP1-induced Effectors JMC-B8, Target3-B27, Effector to Target Ratio 10:1) [%]	percent specific lysis by 51Cr release ([2]; VHP1-induced Effectors SW-B35, Target1-B8, Effector to Target Ratio 10:1) [%]	percent specific lysis by 51Cr release ([2]; VHP1-induced Effectors SW-B35, Target2-B35, Effector to Target Ratio 10:1) [%]	percent specific lysis by 51Cr release ([2]; VHP1-induced Effectors SW-B35, Target3-B27, Effector to Target Ratio 10:1) [%]	percent specific lysis by 51Cr release ([2]; VHP1-induced Effectors WW-B35, Target1-B8, Effector to Target Ratio 10:1) [%]	percent specific lysis by 51Cr release ([2]; VHP1-induced Effectors WW-B35, Target2-B35, Effector to Target Ratio 10:1) [%]	percent specific lysis by 51Cr release ([2]; VHP1-induced Effectors WW-B35, Target3-B27, Effector to Target Ratio 10:1) [%]
CC(C)[C@H](NC(=O)[C@H](CCCNC(=N)N)NC(=O)[C@H](CCCNC(=N)N)NC(=O)[C@H](CCCCN)NC(=O)[C@H](C)NC(=O)[C@H](CCCCN)NC(=O)[C@@H](N)[C@@H](C)O)C(=O)N[C@H](C(=O)N[C@@H](CCC(=O)O)C(=O)N[C@@H](CCCNC(=N)N)C(=O)N[C@@H](CCC(=O)O)C(=O)N[C@@H](CCCCN)C(=O)N[C@@H](CCCNC(=N)N)C(=O)O)C(C)C [VHP1, NH2 ThrLysAlaLysArgArgValValGluArgGluLysArgCOOH] (H-TKAKRRVVEREKR-OH)	+ (a positive result was scored above 20% specific lysis)	+ (a positive result was scored above 20% specific lysis)	- (a positive result was scored above 20% specific lysis)	- (a positive result was scored above 20% specific lysis)	- (a positive result was scored above 20% specific lysis)	+ (a positive result was scored above 20% specific lysis)	+ (a positive result was scored above 20% specific lysis)	- (a positive result was scored above 20% specific lysis)	did not produce significant levels	significant autocytoxic responses	30	30	7	9	10	2	30	32	14
CC(C)C[C@H](N)C(=O)N[C@@H](CCC(=O)O)C(=O)N[C@@H](CC(=O)O)C(=O)N[C@@H](CCCNC(=N)N)C(=O)N[C@@H](CCCNC(=N)N)C(=O)N[C@@H](C)C(=O)N[C@@H](C)C(=O)N[C@H](C(=O)N[C@@H](CC(=O)O)C(=O)N[C@H](C(=O)N[C@H](C(=O)N[C@@H](CS)C(=O)N[C@@H](CCCNC(=N)N)C(=O)N[C@@H](C)C(=O)O)C(C)C)[C@@H](C)O)C(C)C [Control, NH2 LeuGluAspArgArgAlaAlaValAspThrValCysArgAlaCOOH] (H-LEDRRAAVDTVCRA-OH)	- (a positive result was scored above 20% specific lysis)	- (a positive result was scored above 20% specific lysis)	- (a positive result was scored above 20% specific lysis)	- (a positive result was scored above 20% specific lysis)	- (a positive result was scored above 20% specific lysis)	- (a positive result was scored above 20% specific lysis)	- (a positive result was scored above 20% specific lysis)	- (a positive result was scored above 20% specific lysis)	–	did not produce significant levels	–	–	–	–	–	–	–	–	–
